Results published in article PMC6084503, “Pyrrolo[3,2-c]pyridine derivatives with potential inhibitory effect against FMS kinase: in vitro biological studies” (Journal of Enzyme Inhibition and Medicinal Chemistry, 2018).

Assays:
FMS kinase = biological target: T1, FMS kinase (Homo sapiens, UniProt P07333); assay: Kinase HotSpot cell-free enzyme assay, FMS kinase; format: biochemical; details: single-dose concentration of 1 μM
T1 construct: purchased Reaction Biology Corp

[1] = tested on: DU-145 prostate cancer cell line; assay: NCI antiproliferative screening, 5-dose; format: cell-based
Method: (§1) Compounds 1r and KIST101029 were tested at the National Cancer Institute (NCI, Bethesda, MD) following their standard protocol [https://dtp.cancer.gov/discovery_development/nci-60/methodology.htm].
(§2) Due to over-expression of FMS kinase in certain types of tumours such as ovarian, prostate, and breast[5–7] cancers, we decided to test the antiproliferative activity of compound 1r against a panel of six ovarian, two prostate, and five breast cancer cell lines. It was also tested against HS 27 fibroblasts in order to investigate the selectivity indexes. The results were compared with those of KIST101029 as a reference standard.

[2] = tested on: MDA-MB-468 breast cancer cell line; assay: NCI antiproliferative screening, 5-dose; format: cell-based
Method: as §1, §2

[3] = tested on: HS 578T breast cancer cell line; assay: NCI antiproliferative screening, 5-dose; format: cell-based
Method: as §1, §2

[4] = tested on: IGROV1 ovarian cancer cell line; assay: NCI antiproliferative screening, 5-dose; format: cell-based
Method: as §1, §2

[5] = tested on: MDA-MB-231/ATCC breast cancer cell line; assay: NCI antiproliferative screening, 5-dose; format: cell-based
Method: as §1, §2

[6] = tested on: PC-3 prostate cancer cell line; assay: NCI antiproliferative screening, 5-dose; format: cell-based
Method: as §1, §2

[7] = tested on: OVCAR-3 ovarian cancer cell line; assay: NCI antiproliferative screening, 5-dose; format: cell-based
Method: as §1, §2

[8] = tested on: MCF7 breast cancer cell line; assay: NCI antiproliferative screening, 5-dose; format: cell-based
Method: as §1, §2

[9] = tested on: OVCAR-4 ovarian cancer cell line; assay: NCI antiproliferative screening, 5-dose; format: cell-based
Method: as §1, §2

[10] = tested on: NCI/ADR-RES ovarian cancer cell line; assay: NCI antiproliferative screening, 5-dose; format: cell-based
Method: as §1, §2

[11] = tested on: T-47D breast cancer cell line; assay: NCI antiproliferative screening, 5-dose; format: cell-based
Method: as §1, §2

[12] = tested on: OVCAR-8 ovarian cancer cell line; assay: NCI antiproliferative screening, 5-dose; format: cell-based
Method: as §1, §2

[13] = tested on: OVCAR-5 ovarian cancer cell line; assay: NCI antiproliferative screening, 5-dose; format: cell-based
Method: as §1, §2

FGFR1 = biological target: T2, FGFR1 (Homo sapiens, UniProt P11362); assay: Kinase HotSpot 40-kinase panel; format: biochemical; details: single-dose concentration of 1 μM
T2 construct: purchased Reaction Biology Corp. (Kinase HotSpot)
Method: (§3) Reaction Biology Corp. Kinase HotSpot^SM service [http://www.reactionbiology.com] was utilised for screening of the target compounds as per the protocol reported in the literature.
(§4) Compound 1r was tested against a panel of 40 kinases including FMS. […] Its inhibition percentages against FLT3 (D835Y) and c-MET kinases were 42% and 40%, respectively. So its IC50 values against both of them will be in micromolar scale. […] The inhibition percentages exerted by compound 1r against the other 37 tested kinases were less than 28%.

FLT3 (D835Y) = biological target: T3, FLT3 (D835Y) (Homo sapiens, UniProt P36888, D835Y); assay: Kinase HotSpot 40-kinase panel; format: biochemical; details: single-dose concentration of 1 μM
T3 construct: purchased Reaction Biology Corp. (Kinase HotSpot)
Method: as §3, §4

SAPK2a = biological target: T4, SAPK2a (Homo sapiens, UniProt Q16539); assay: Kinase HotSpot 40-kinase panel; format: biochemical; details: single-dose concentration of 1 μM
T4 construct: purchased Reaction Biology Corp. (Kinase HotSpot)
Method: as §3, §4

CaMKI = biological target: T5, CaMKI (Homo sapiens, UniProt Q14012); assay: Kinase HotSpot 40-kinase panel; format: biochemical; details: single-dose concentration of 1 μM
T5 construct: purchased Reaction Biology Corp. (Kinase HotSpot)
Method: as §3, §4

ROS/ROS1 = biological target: T6, ROS/ROS1 (Homo sapiens, UniProt P08922); assay: Kinase HotSpot 40-kinase panel; format: biochemical; details: single-dose concentration of 1 μM
T6 construct: purchased Reaction Biology Corp. (Kinase HotSpot)
Method: as §3, §4

PIM1 = biological target: T7, PIM1 (Homo sapiens, UniProt P11309); assay: Kinase HotSpot 40-kinase panel; format: biochemical; details: single-dose concentration of 1 μM
T7 construct: purchased Reaction Biology Corp. (Kinase HotSpot)
Method: as §3, §4

P70S6K = biological target: T8, P70S6K (Homo sapiens, UniProt P23443); assay: Kinase HotSpot 40-kinase panel; format: biochemical; details: single-dose concentration of 1 μM
T8 construct: purchased Reaction Biology Corp. (Kinase HotSpot)
Method: as §3, §4

CHK1 = biological target: T9, CHK1 (Homo sapiens, UniProt O14757); assay: Kinase HotSpot 40-kinase panel; format: biochemical; details: single-dose concentration of 1 μM
T9 construct: purchased Reaction Biology Corp. (Kinase HotSpot)
Method: as §3, §4

PLK1 = biological target: T10, PLK1 (Homo sapiens, UniProt P53350); assay: Kinase HotSpot 40-kinase panel; format: biochemical; details: single-dose concentration of 1 μM
T10 construct: purchased Reaction Biology Corp. (Kinase HotSpot)
Method: as §3, §4

EPHA1 = biological target: T11, EPHA1 (Homo sapiens, UniProt P21709); assay: Kinase HotSpot 40-kinase panel; format: biochemical; details: single-dose concentration of 1 μM
T11 construct: purchased Reaction Biology Corp. (Kinase HotSpot)
Method: as §3, §4

ALK = biological target: T12, ALK (Homo sapiens, UniProt Q9UM73); assay: Kinase HotSpot 40-kinase panel; format: biochemical; details: single-dose concentration of 1 μM
T12 construct: purchased Reaction Biology Corp. (Kinase HotSpot)
Method: as §3, §4

DMPK = biological target: T13, DMPK (Homo sapiens, UniProt Q09013); assay: Kinase HotSpot 40-kinase panel; format: biochemical; details: single-dose concentration of 1 μM
T13 construct: purchased Reaction Biology Corp. (Kinase HotSpot)
Method: as §3, §4

MEK1 = biological target: T14, MEK1 (Homo sapiens, UniProt Q02750); assay: Kinase HotSpot 40-kinase panel; format: biochemical; details: single-dose concentration of 1 μM
T14 construct: purchased Reaction Biology Corp. (Kinase HotSpot)
Method: as §3, §4

JNK1α1 = biological target: T15, JNK1α1 (Homo sapiens, UniProt P45983); assay: Kinase HotSpot 40-kinase panel; format: biochemical; details: single-dose concentration of 1 μM
T15 construct: purchased Reaction Biology Corp. (Kinase HotSpot)
Method: as §3, §4

PAK2 = biological target: T16, PAK2 (Homo sapiens, UniProt Q13177); assay: Kinase HotSpot 40-kinase panel; format: biochemical; details: single-dose concentration of 1 μM
T16 construct: purchased Reaction Biology Corp. (Kinase HotSpot)
Method: as §3, §4

KDR = biological target: T17, KDR (Homo sapiens, UniProt P35968); assay: Kinase HotSpot 40-kinase panel; format: biochemical; details: single-dose concentration of 1 μM
T17 construct: purchased Reaction Biology Corp. (Kinase HotSpot)
Method: as §3, §4

mTOR = biological target: T18, mTOR (Homo sapiens, UniProt P42345); assay: Kinase HotSpot 40-kinase panel; format: biochemical; details: single-dose concentration of 1 μM
T18 construct: purchased Reaction Biology Corp. (Kinase HotSpot)
Method: as §3, §4

IKKβ = biological target: T19, IKKβ (Homo sapiens, UniProt O14920); assay: Kinase HotSpot 40-kinase panel; format: biochemical; details: single-dose concentration of 1 μM
T19 construct: purchased Reaction Biology Corp. (Kinase HotSpot)
Method: as §3, §4

Aurora A = biological target: T20, Aurora A (Homo sapiens, UniProt O14965); assay: Kinase HotSpot 40-kinase panel; format: biochemical; details: single-dose concentration of 1 μM
T20 construct: purchased Reaction Biology Corp. (Kinase HotSpot)
Method: as §3, §4

HIPK2 = biological target: T21, HIPK2 (Homo sapiens, UniProt Q9H2X6); assay: Kinase HotSpot 40-kinase panel; format: biochemical; details: single-dose concentration of 1 μM
T21 construct: purchased Reaction Biology Corp. (Kinase HotSpot)
Method: as §3, §4

ROCK1 = biological target: T22, ROCK1 (Homo sapiens, UniProt Q13464); assay: Kinase HotSpot 40-kinase panel; format: biochemical; details: single-dose concentration of 1 μM
T22 construct: purchased Reaction Biology Corp. (Kinase HotSpot)
Method: as §3, §4

GSK3β = biological target: T23, GSK3β (Homo sapiens, UniProt P49841); assay: Kinase HotSpot 40-kinase panel; format: biochemical; details: single-dose concentration of 1 μM
T23 construct: purchased Reaction Biology Corp. (Kinase HotSpot)
Method: as §3, §4

c-SRC = biological target: T24, c-SRC (Homo sapiens, UniProt P12931); assay: Kinase HotSpot 40-kinase panel; format: biochemical; details: single-dose concentration of 1 μM
T24 construct: purchased Reaction Biology Corp. (Kinase HotSpot)
Method: as §3, §4

[14] = Homo sapiens, concentration producing 50% inhibition, mean of duplicate experiments
[15] = concentration producing 100% inhibition

T1 sequence (P07333 20-972): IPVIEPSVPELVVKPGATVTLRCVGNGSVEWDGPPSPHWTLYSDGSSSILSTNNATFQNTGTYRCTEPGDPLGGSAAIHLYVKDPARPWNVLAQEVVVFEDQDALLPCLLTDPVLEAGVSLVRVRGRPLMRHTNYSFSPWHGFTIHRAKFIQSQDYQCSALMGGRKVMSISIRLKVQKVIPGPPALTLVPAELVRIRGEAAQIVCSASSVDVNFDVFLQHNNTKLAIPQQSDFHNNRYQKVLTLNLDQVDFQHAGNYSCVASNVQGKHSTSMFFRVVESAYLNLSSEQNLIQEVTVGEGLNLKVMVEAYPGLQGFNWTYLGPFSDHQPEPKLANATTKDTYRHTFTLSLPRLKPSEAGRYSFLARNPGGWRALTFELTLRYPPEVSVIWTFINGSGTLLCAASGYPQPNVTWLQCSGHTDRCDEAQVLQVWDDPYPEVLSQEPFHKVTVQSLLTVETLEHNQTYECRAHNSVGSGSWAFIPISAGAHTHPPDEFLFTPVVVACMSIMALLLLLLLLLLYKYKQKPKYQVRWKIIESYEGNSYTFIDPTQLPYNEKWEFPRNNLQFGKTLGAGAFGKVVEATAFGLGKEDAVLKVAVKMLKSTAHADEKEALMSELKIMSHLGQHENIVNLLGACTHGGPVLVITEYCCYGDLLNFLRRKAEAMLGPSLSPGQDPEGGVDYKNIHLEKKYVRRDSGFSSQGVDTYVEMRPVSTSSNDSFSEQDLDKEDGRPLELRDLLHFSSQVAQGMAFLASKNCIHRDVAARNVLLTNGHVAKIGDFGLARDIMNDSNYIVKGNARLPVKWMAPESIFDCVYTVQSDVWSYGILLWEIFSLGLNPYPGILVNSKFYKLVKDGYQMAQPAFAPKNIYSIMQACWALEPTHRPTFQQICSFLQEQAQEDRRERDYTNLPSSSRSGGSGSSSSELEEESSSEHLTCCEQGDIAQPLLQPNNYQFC
T16 sequence (Q13177 whole entry): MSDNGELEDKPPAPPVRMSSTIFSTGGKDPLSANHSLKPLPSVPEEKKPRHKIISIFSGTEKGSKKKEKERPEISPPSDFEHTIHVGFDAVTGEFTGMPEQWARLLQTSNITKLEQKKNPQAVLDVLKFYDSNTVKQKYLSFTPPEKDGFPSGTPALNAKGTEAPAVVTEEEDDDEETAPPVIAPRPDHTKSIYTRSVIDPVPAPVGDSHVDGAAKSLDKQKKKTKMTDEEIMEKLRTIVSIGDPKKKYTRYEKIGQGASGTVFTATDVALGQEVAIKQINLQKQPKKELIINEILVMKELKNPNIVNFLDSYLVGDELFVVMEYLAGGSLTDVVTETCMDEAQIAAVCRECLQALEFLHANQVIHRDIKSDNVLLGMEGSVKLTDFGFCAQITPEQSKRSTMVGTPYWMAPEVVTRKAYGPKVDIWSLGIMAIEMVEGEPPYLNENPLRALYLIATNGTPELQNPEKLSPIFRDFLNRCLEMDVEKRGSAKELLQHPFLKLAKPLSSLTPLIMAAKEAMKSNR
T5 sequence (Q14012 whole entry): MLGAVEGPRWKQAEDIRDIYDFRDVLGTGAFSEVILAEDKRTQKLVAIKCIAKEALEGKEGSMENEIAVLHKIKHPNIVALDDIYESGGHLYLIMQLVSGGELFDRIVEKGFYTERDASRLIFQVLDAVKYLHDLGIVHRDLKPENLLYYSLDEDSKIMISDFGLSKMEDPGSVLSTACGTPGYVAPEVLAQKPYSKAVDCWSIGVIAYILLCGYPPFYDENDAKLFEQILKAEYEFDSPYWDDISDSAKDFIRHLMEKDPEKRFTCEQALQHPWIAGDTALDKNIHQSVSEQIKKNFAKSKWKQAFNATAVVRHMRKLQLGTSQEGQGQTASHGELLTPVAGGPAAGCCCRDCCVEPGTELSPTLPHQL
T12 sequence (Q9UM73 19-1620): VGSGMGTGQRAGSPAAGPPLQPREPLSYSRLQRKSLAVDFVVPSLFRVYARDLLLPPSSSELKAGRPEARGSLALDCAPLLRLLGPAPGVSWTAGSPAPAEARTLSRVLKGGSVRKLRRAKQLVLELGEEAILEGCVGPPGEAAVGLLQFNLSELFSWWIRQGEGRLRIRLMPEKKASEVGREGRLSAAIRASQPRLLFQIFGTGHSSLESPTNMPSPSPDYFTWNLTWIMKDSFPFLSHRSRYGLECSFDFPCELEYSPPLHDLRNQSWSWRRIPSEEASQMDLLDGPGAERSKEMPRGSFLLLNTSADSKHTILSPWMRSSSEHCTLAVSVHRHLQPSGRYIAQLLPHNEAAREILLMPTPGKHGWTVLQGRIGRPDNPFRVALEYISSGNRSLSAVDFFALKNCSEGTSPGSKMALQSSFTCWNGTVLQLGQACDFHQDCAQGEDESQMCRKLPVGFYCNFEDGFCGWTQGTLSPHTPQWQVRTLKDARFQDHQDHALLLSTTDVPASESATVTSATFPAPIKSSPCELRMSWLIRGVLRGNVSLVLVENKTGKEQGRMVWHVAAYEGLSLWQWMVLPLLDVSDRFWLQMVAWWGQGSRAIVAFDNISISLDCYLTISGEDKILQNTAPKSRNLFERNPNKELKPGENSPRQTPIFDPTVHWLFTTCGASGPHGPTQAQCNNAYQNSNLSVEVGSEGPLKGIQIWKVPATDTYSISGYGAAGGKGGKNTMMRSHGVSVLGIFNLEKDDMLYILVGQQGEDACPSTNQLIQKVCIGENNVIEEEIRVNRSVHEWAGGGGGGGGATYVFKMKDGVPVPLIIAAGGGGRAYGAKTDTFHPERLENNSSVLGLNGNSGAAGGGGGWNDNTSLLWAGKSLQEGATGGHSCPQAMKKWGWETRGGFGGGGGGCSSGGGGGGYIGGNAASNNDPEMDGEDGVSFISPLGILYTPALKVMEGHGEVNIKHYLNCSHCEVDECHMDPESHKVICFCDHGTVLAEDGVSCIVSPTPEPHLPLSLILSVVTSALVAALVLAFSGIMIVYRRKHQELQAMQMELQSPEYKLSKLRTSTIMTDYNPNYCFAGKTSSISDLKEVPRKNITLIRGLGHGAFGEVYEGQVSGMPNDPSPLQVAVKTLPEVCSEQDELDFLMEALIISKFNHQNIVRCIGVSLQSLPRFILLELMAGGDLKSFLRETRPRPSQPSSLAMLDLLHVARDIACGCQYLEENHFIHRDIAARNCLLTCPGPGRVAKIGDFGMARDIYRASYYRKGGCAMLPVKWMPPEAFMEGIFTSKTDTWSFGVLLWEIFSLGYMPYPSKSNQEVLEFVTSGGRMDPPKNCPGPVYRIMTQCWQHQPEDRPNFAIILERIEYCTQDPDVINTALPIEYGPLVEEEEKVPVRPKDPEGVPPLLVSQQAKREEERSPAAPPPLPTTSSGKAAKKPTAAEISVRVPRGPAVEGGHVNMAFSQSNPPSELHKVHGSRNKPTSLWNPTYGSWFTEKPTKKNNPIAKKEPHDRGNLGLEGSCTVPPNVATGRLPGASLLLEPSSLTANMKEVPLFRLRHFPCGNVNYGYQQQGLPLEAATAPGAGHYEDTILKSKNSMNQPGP
T13 sequence (Q09013 whole entry): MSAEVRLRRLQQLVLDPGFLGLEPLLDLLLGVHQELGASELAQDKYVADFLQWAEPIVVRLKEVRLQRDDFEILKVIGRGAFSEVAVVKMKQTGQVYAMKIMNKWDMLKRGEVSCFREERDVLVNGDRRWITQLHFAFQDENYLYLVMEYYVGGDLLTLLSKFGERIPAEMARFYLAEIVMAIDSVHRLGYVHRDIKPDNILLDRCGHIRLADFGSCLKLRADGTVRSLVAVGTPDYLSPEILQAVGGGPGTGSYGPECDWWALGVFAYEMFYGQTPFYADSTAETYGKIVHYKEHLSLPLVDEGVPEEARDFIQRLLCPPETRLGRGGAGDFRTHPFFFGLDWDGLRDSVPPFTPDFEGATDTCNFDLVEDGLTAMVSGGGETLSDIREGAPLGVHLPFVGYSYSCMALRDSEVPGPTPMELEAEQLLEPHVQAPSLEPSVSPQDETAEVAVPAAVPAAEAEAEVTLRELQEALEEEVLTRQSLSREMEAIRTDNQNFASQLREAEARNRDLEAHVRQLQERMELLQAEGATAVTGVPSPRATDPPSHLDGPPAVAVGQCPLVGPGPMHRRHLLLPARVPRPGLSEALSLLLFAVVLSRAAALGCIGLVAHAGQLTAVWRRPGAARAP
T23 sequence (P49841 whole entry): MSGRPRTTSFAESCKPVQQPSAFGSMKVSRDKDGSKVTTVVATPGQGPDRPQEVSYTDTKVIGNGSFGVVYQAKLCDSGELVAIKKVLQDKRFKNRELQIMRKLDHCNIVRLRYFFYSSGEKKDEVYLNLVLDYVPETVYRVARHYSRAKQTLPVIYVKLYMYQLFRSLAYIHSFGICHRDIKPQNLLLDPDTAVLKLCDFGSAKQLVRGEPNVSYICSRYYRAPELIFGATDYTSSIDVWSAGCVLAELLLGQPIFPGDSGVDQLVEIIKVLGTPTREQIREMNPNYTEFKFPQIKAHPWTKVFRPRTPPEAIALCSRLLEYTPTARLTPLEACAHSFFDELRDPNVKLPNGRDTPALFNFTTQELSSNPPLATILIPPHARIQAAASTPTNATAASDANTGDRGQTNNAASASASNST
T4 sequence (Q16539 whole entry): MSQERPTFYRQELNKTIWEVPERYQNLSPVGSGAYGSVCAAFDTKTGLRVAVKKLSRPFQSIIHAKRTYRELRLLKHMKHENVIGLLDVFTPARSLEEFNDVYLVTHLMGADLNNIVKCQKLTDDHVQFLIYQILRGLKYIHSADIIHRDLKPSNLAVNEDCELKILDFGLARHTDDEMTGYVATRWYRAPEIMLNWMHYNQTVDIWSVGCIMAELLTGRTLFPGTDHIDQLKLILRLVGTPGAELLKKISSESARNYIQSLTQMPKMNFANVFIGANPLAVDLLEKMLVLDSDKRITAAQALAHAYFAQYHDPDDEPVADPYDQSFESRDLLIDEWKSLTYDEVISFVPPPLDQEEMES

Compound: O=C(Nc1cccc(-n2ccc3c(NC(=O)c4ccccc4)nccc32)c1)c1ccc(N2CCOCC2)c(C(F)(F)F)c1 [KIST101029, reference compound]
- inhibition at 1 µM (FMS kinase): 90%
- IC50 [1, 14]: 40 nM
- TGI [1, 15]: 100 nM
- IC50 [2, 14]: 30 nM
- TGI [2, 15]: 100 nM
- IC50 [3, 14]: 990 nM
- TGI [3, 15]: 97200 nM
- IC50 ([4]; Homo sapiens, IGROV-1, concentration producing 50% inhibition, mean of duplicate experiments): 60 nM
- TGI [4, 15]: 56900 nM
- IC50 [5, 14]: 160 nM
- TGI [5, 15]: 3420 nM
- IC50 ([6]; concentration producing 50% inhibition, mean of duplicate experiments): 60 nM
- TGI [6, 15]: >100000 nM
- IC50 [7, 14]: 20 nM
- TGI [7, 15]: 50 nM
- IC50 [8, 14]: 40 nM
- TGI [8, 15]: 54000 nM
- IC50 [9, 14]: 240 nM
- TGI [9, 15]: 50000 nM
- IC50 [10, 14]: 40 nM
- TGI [10, 15]: 26400 nM
- IC50 ([11]; Homo sapiens, T47D, concentration producing 50% inhibition, mean of duplicate experiments): 80 nM
- TGI [11, 15]: 7460 nM
- IC50 [12, 14]: 60 nM
- TGI [12, 15]: >100000 nM
- IC50 [13, 14]: 200 nM
- TGI [13, 15]: >100000 nM
- inhibition at 1 µM (FGFR1): 6%
- inhibition at 1 µM (FLT3 (D835Y)): 16%
- inhibition at 1 µM (SAPK2a): 25%
- inhibition at 1 µM (CaMKI): -1%
- inhibition at 1 µM (ROS/ROS1): 19%
- inhibition at 1 µM (PIM1): 10%
- inhibition at 1 µM (P70S6K): 7%
- inhibition at 1 µM (CHK1): -8%
- inhibition at 1 µM (PLK1): 4%
- inhibition at 1 µM (EPHA1): 9%
- inhibition at 1 µM (ALK): 11%
- inhibition at 1 µM (DMPK): -18%
- inhibition at 1 µM (MEK1): 12%
- inhibition at 1 µM (JNK1α1): -1%
- inhibition at 1 µM (PAK2): 2%
- inhibition at 1 µM (KDR): 71%
- inhibition at 1 µM (mTOR): -10%
- inhibition at 1 µM (IKKβ): 23%
- inhibition at 1 µM (Aurora A): 21%
- inhibition at 1 µM (HIPK2): 9%
- inhibition at 1 µM (ROCK1): 3%
- inhibition at 1 µM (GSK3β): 4%
- inhibition at 1 µM (c-SRC): 10%
